Values joined by “and” are separate entries in the source; they are usually repeats but may differ in a detail not shown here. Equal entries are not always repeated.
Tests used:
[1] = target: T1, hT1R2/R3 (Homo sapiens, UniProt Q7RTX0+Q8TE23); assay: Screening for sweet enhancers: sucrose EC50 shift, FLIPR calcium assay; format: cell-based; details: sucrose EC50 without enhancer / with enhancer; test compound 50 μM; hT1R2/R3-HEK293 Ga15 cells; Tables A and B
T1 construct: expressed in transfected cells; host or cells: HEK293 cells expressing Ga15 (hT1R2/R3-HEK293 Ga15)
T1 sequence (Q8TE23 20-839): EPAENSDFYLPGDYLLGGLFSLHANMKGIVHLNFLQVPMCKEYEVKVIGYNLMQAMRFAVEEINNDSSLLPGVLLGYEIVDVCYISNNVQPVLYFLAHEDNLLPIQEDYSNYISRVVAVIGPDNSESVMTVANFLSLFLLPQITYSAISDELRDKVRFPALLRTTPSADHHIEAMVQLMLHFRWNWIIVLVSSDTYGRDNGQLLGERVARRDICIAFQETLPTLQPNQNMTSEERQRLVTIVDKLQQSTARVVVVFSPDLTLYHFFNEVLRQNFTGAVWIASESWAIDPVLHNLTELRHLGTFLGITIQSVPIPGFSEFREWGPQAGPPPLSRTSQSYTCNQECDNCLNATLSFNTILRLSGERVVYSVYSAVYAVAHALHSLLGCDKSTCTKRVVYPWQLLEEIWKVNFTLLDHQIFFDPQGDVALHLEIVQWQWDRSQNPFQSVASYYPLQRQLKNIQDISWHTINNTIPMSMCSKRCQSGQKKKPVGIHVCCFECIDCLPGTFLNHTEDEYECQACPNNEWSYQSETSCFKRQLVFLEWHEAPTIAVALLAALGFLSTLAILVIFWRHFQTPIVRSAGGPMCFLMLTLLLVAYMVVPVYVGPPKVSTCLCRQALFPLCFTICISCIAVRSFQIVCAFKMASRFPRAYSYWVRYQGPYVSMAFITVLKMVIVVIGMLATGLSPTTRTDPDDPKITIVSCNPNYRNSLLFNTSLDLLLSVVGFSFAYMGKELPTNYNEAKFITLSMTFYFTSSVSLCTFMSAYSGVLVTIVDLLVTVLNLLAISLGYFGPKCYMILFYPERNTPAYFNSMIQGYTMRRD
T1 sequence (Q7RTX0 21-852): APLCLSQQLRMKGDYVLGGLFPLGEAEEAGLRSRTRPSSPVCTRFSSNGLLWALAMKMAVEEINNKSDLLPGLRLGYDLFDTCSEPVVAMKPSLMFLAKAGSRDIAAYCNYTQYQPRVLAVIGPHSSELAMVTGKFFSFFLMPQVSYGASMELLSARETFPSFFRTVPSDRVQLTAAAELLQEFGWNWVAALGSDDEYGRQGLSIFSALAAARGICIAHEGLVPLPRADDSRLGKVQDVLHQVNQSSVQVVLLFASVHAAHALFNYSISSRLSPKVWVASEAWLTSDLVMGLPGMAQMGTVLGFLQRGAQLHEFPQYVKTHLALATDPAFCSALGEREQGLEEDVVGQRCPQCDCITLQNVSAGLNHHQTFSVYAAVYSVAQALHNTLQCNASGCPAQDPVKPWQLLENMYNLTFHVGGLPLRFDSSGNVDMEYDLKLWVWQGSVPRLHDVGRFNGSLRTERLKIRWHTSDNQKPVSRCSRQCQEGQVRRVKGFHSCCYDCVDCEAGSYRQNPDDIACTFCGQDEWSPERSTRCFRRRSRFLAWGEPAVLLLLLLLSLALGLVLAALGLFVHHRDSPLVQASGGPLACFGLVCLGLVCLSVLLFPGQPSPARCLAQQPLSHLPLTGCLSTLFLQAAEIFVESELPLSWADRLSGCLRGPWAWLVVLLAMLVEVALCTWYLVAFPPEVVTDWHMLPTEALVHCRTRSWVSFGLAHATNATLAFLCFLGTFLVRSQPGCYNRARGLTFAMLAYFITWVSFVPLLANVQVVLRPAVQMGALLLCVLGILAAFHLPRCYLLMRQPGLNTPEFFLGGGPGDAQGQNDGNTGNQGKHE
Experimental: hT1R2/R3-HEK293 Ga15 cells were seeded in 384-well-clear bottom plates (Fisher) at a density of ˜32,000 cells/well and grown overnight. On the day of the experiment, hT1R2/R3-HEK293 Ga15 were loaded with the calcium indicator Fluo3AM ([…]) (Invitrogen, Carlsbad, Calif.) in D-PBS (Invitrogen, Carlsbad, Calif.) using a Multidrop. Cells were incubated for 1 hour at room temperature and excess dye was washed out with D-PBS using an EMBLA cell washer (Molecular Devices, Sunnyvale, Calif.), leaving a residual volume of […]. […] After 30 minutes of rest time at room temperature, Fluo3AM-loaded cell plates, and the sweetener/compound plate mixture were loaded into a Fluorometric Imaging Plate Reader (FLIPR) (Molecular Devices, Sunnyvale, Calif.). Imaging was performed using a 480 nm excitation and a 535 emission and was initiated with the acquisition of the baseline fluorescence for a period of 7 seconds. […] Raw fluorescence counts were then normalized in each well (using custom made data import software) by calculating delta F/f values (maximum fluorescent count obtained after stimulation—minimal fluorescent count obtained before stimulation/minimal fluorescent count obtained before stimulation). EC50s were determined using a non-linear regression algorithm (GraphPad PRISM, San Diego, Calif.), where the Hill slope, bottom asymptotes and top asymptotes were allow to vary. […]

[2] = system: human panelists; assay: Sweet flavor enhancement, human panelists, paired comparison test; format: in vivo
Experimental: Test samples containing experimental compounds are presented in pairs to the panelist and they are asked to determine which of the sample is sweeter. A group of 10-16 or more panelists participated in each test. Subjects refrained from eating or drinking (except water) for at least 1 hour prior to the test. Subjects rinsed with water several times to clean the mouth.
All samples are prepared with ethanol to ensure dispersion of the compound in solution. This includes samples without compound; all solutions are balanced for 0.1% ethanol.
Samples are also prepared with low sodium buffer (pH 7.1) in place of water. Buffer contains 0.952 g of KCl, 5.444 g of Na2HPO4, and 0.952 g of KH2PO4 in 40 L of DIUF water. Sample volumes are usually 20 ml.
In one paired comparison test, the panelist is presented with two different samples and asked to identify the sample which is sweeter. The samples within a paired comparison test are presented in a randomized, counterbalanced order. Panelists have up to a 1 minute delay between taste tests to clear the mouth of any tastes.
Binomial probability tables are used to determine the probability of the correct number of responses occurring for each test at alpha=0.05

[3] = system: human panelists; assay: Sweet flavor enhancement, human panelists, scaling test; format: in vivo; set-up: key: 0 = no sweetness, 15 = sweetness equal to 15% sucrose; details: 0-15 line scale
From the text: Test samples containing experimental compounds were compared to a dose-response curve for perceived sweetness intensity of sweeteners (sucralose, sucrose, fructose and other sweeteners) concentrations to determine equivalent sweetness intensity.
A group of eight or more panelists tasted solutions including sweeteners at various concentrations, as well as the experimental compound both with and without added sweetener. Panelists then rated sweetness intensity of all samples on a structured horizontal line scale, anchored from 0 to 15, where 0 equals no sweetness and 15 equals equivalent sweetness to a 15% sucrose sample. Scores for sweetness intensity were averaged across panelists. Then using the average scores and/or equation of the line for the sweetener dose-response curve, equivalent sweetness concentrations were determined for the samples containing experimental compounds.
Subjects had been previously familiarized with the key attribute taste and were trained to use the 0 to 15 point line scale. Subjects refrained from eating or drinking (except water) for at least 1 hour prior to the test. Subjects ate a cracker and rinsed with water several times to clean the mouth.
Sweetener solutions are provided at a wide range of concentrations such as 100 ppm, 200 ppm, 300 ppm, 400 ppm, and 500 ppm for sucralose, or between 0% and 12% for sucrose or fructose, in order to create a dose-response curve. Samples containing experimental compound were prepared both alone and in a 100 ppm sucralose solution or a 6% sucrose or fructose solution. All samples were made up in low sodium buffer pH 7.1. In order to aid dispersion, solutions can be made up in 0.1% ethanol.
The solutions were dispensed in 20 ml volumes into 1 oz. sample cups and served to the subjects at room temperature. All samples were presented in randomized counterbalanced order to reduce response bias. Further, two sessions of testing may be used to check panel precision.
Subjects tasted each sample individually and rate sweetness intensity on the line scale prior to tasting the next sample. All samples were expectorated. Subjects may retaste the samples but can only use the volume of sample given. Subjects must rinse with water between samples. Eating an unsalted cracker between samples may be required depending on the samples tasted.
The scores for each sample were averaged across subjects and standard error was calculated. The dose-response curve was plotted graphically, and this may be used to ensure the panel is rating accurately; i.e., increasing the concentration of sucralose should correspond to increased average scores for sweetness. A 2-way ANOVA (factors being samples and panelists) and multiple comparison tests (such as Tukey's Honestly Significant Difference test) can be used to determine differences among samples and/or panelists. A 3-way ANOVA, with sessions as the third factor, can be used to determine if there is any difference in the ratings between sessions.

For CCCNC(=O)C(C)(C)COc1cccc2nc(CC)c(C(=O)O)c(N)c12 [Compound Q, 4-amino-5-(2,2-dimethyl-3-oxo-3-(propylamino)propoxy)-2-ethyl-quinoline-3-carboxylic acid], the “EC50 Ratio (50 μM)” value [1] was 3.4.
For CCC(CC)COc1cccc2nc(C)c(C(=O)O)c(N)c12 [Example 22, 4-amino-5-(2-ethylbutoxy)-2-methylquinoline-3-carboxylic acid], the melting point was 145 to 151 °C.
Compound Cc1nc2cccc(OCC(C)(C)NC(=O)c3ccncc3)c2c(N)c1C(=O)O [Example 24, 4-amino-5-(2-(isonicotinamido)-2-methylpropoxy)-2-methylquinoline-3-carboxylic acid] has a melting point of 195 to 198 °C.
In the case of Cc1nc2cccc(OCC(C)(C)NC(=O)c3cccc(O)c3)c2c(N)c1C(=O)O [Example 25, 4-amino-5-(2-(3-hydroxybenzamido)-2-methylpropoxy)-2-methylquinoline-3-carboxylic acid], the melting point is reported as 195 to 198 °C.
For Cc1nc2cccc(OC3CCCCC3)c2c(N)c1C(=O)O [Example 36, 4-amino-5-(cyclohexyloxy)-2-methylquinoline-3-carboxylic acid], the melting point was 220 to 221.5 °C.
In the case of Cc1nc2cccc(OCC(C)C)c2c(N)c1C(=O)O [Example 41, 4-amino-5-isobutoxy-2-methylquinoline-3-carboxylic acid], the melting point is reported as 203.7 °C.
In the case of OC[C@H]1O[C@@](CO)(O[C@H]2O[C@H](CO)[C@@H](O)[C@H](O)[C@H]2O)[C@@H](O)[C@@H]1O [Sucrose, sucrose], the “Sample selected as sweeter by panelists, Total” value (“Sample selected as sweeter” for short) ([2]; pair: 1% sucrose vs LSB + 25 uM Compound A, total 45) is reported as 44, the “Sample selected as sweeter” value ([2]; pair: 1% sucrose vs LSB + 25 uM Compound I3, total 42) is reported as 36 and the “Sample selected as sweeter” value ([2]; pair: 1% sucrose vs LSB + 33 uM Compound C1, total 22) is reported as 18. For the same compound, the “Sample selected as sweeter” value ([2]; pair: 1% sucrose vs LSB + 36.5 uM Compound B4, total 45) was 44, the “Sample selected as sweeter” value ([2]; pair: 1% sucrose vs LSB + 45 uM Compound J, total 48) was 47 and the “Sample selected as sweeter” value ([2]; pair: 10% sucrose vs 6% sucrose + 25 uM Compound A, total 48) was 28. The “Sample selected as sweeter” value ([2]; pair: 10% sucrose vs 6% sucrose + 36.5 uM Compound B4, total 26) was 10, the “Sample selected as sweeter” value ([2]; pair: 10% sucrose vs 6% sucrose + 45 uM Compound J, total 42) was 17 and the “Sample selected as sweeter” value ([2]; pair: 12% sucrose vs 6% sucrose + 25 uM Compound I3, total 42) was 18. For the same compound, the “Sample selected as sweeter” value ([2]; pair: 12% sucrose vs 6% sucrose + 33 uM Compound C1, total 30) was 17, the Average sweetness ([3]; 6% sucrose alone (reference)) was 6.6 and 6.5 and 6.3 and 6.2 and 6.1 and 6.4 and the Average sweetness ([3]; 8% sucrose alone (reference)) was 8.2 and 8.1 and 7.8 and 7.9 and 8.4. For the same compound, the Average sweetness ([3]; 9% sucrose alone (reference)) was 9.2 and 8.4 and 8.6 and 8.5, the Average sweetness ([3]; 10% sucrose alone (reference)) was 9.7 and 9.5 and 9.2 and 9.0 and 9.6 and 10.3 and the Average sweetness ([3]; 12% sucrose alone (reference)) was 10.9.
With OC[C@H]1O[C@H](O[C@]2(CCl)O[C@H](CCl)[C@@H](O)[C@@H]2O)[C@H](O)[C@@H](O)[C@H]1Cl [sucralose] the Average sweetness ([3]; 50 ppm sucralose alone (reference)) was 3.9, the Average sweetness ([3]; 100 ppm sucralose alone (reference)) was 5.9 and 5.5 and the Average sweetness ([3]; 200 ppm sucralose alone (reference)) was 8.7 and 9.1. It also gave an Average sweetness ([3]; 300 ppm sucralose alone (reference)) of 10.2.

Reference: patent US9902737B2, “Sweet flavor modifier” (SENOMYX, INC., priority 2010, dated 2018)
